Source: US20140357577A1, “HIV Membrane Fusion Inhibitors” (priority 2011, published 2014)
Starred links: 1 amine or outer side, 2 acyl side, 3 side chain; linkers in the order of their positions; H or OH if unused. *: point of attachment. cholesteryl‑oxycarbonylmethyl = CC(C)CCC[C@@H](C)[C@H]1CC[C@H]2[C@@H]3CC=C4C[C@@H](OC(=O)C*)CC[C@]4(C)[C@H]3CC[C@]12C; Palmitoyl = CCCCCCCCCCCCCCCC(=O)*; Suc = O=C(CCC(=O)[*:2])[*:1]; Pentanoyl = CCCCC(=O)*

Assays:
HIV-IIIB + 50% HS = assay: Standard AVE (50% Human Serum), HIV-1 replication assay in MT4-LTR-EGFP cells; type: cell-based; settings: fold change vs EC50 in the assay without human serum
Description: The HIV-1 replication assay (with 50% human serum) measures virus replication as an induction of enhanced green fluorescent protein (EGFP) expression, in the presence of 50% human serum. The indicator MT4-LTR-EGFP cells contain an EGFP gene under the control of the HIV-1 LTR promoter sequence. Successful HIV-1 infection results in viral Tat protein expression and subsequent induction of EGFP expression. Compounds/peptides inhibiting HIV-1 infection are expected to reduce EGFP expression as compared to the untreated HIV-infected control. Compounds/peptides binding to human serum are expected to have a reduced activity for inhibiting the virus in the assay.
Serial 4-fold dilutions of test compounds/peptides were mixed with HIV-1 and MT4-LTR-EGFP cells and incubated at 37° C., in the presence of 50% human serum. After 3 days, the wells were examined for EGFP expression using an argon laser-scanning microscope. The effective compound/peptide concentration inhibiting 50% of the virus-induced EGFP signal (EC50) was determined by linear interpolation of the EGFP signal vs. logarithm of the compound concentration; T20, C34 and Sifuvirtide were added as reference compounds. Results were reported as a fold change in EC50, as compared with the acquired EC50 in the assay without human serum.

[1] = tested on: HIV wild type virus strain IIIB; assay: Standard Anti-Viral-Experiment (AVE), HIV-1 replication assay in MT4-LTR-EGFP cells, wild type IIIB; type: cell-based; settings: 3 days, EGFP signal
Description: • Standard Anti-Viral-Experiment “AVE” (wild type HIV strain IIIB+HIV strain HXB2D side directed mutants V38A and Q40H)
The HIV-1 replication assay measures virus replication (HIV wild type virus strain 111B or HXB2D, or a HIV mutant virus strain HXB2D with mutation V38A or Q40H in the gp41 gene) as an induction of enhanced green fluorescent protein (EGFP) expression. The indicator MT4-LTR-EGFP cells contain an EGFP gene under the control of the HIV-1 LTR promoter sequence. Successful HIV-1 infection results in viral Tat protein expression and subsequent induction of EGFP expression. Compounds/peptides inhibiting HIV-1 infection are expected to reduce EGFP expression as compared to the untreated HIV-infected control.
Serial 4-fold dilutions of test compounds/peptides were mixed with HIV-1 (IIIB, HXB2D, or a HXB2D mutant virus (V38A or Q40H)) and MT4-LTR-EGFP cells and incubated at 37° C. After 3 days, the wells were examined for EGFP expression using an argon laser-scanning microscope. The effective compound/peptide concentration inhibiting 50% of the virus-induced EGFP signal (EC50) was determined by linear interpolation of the EGFP signal vs. logarithm of the compound concentration; (T20, C34 and Sifuvirtide were added as reference compounds). For the V38A and Q40H mutant viruses, results were reported as a fold change in EC50, as compared with a drug-susceptible wild type strain HXB2D, which forms the backbone of the mutant virus. • Standard AVE (50% Human Serum)

Row | Substance | HIV-IIIB + 50% HS (Fold change in EC50) (HIV-IIIB + 50% HS) | EC50 [1] [nM]
1 | Ac-aCYAACIEALIRAAQEQQEKNEAALr-NH2 [Peptide 75] | 4 | 29
2 | Ac-ACYAACIDALIRAAQEQQEKNEAALR-NH2 [Peptide 70] | 1 | 23
3 | Ac-aCYAACIEALIRAAQEQQEKNEAALr-NH2 [Peptide 76] | 2 | –
4 | ANYLALIEALIRAAQEQQEKNEAALR [Peptide 6] | 0.7 | 5
5 | Suc-ECYLRCIEELIRKAQEQQEKNEAALRGSGK(palmitoyl)-NH2 (Suc-ECYLRCIEELIRKAQEQQEKNEAALRGSGK(Palmitoyl)-NH2; cysteine pairing not given here) [Peptide 88] | 3 | 0.06
6 | Ac-ACYIACIEALIRAAQEQQEKNEAALR-NH2 [Peptide 57] | 2 | 4
7 | Suc-ENYLRLIEELIRKAQEQQEKNEAALRGSGC(cholesteryl-oxycarbonylmethyl)-NH2 (Suc-ENYLRLIEELIRKAQEQQEKNEAALRGSGC(cholesteryl‑oxycarbonylmethyl)-NH2; SMILES CC[C@H](C)[C@H](NC(=O)[C@H](CC(C)C)NC(=O)[C@H](CCC(=O)O)NC(=O)[C@H](CCC(=O)O)NC(=O)[C@@H](NC(=O)[C@H](CC(C)C)NC(=O)[C@H](CCCNC(=N)N)NC(=O)[C@H](CC(C)C)NC(=O)[C@H](Cc1ccc(O)cc1)NC(=O)[C@H](CC(N)=O)NC(=O)[C@H](CCC(=O)O)NC(=O)CCC(=O)O)[C@@H](C)CC)C(=O)N[C@@H](CCCNC(=N)N)C(=O)N[C@@H](CCCCN)C(=O)N[C@@H](C)C(=O)N[C@@H](CCC(N)=O)C(=O)N[C@@H](CCC(=O)O)C(=O)N[C@@H](CCC(N)=O)C(=O)N[C@@H](CCC(N)=O)C(=O)N[C@@H](CCC(=O)O)C(=O)N[C@@H](CCCCN)C(=O)N[C@@H](CC(N)=O)C(=O)N[C@@H](CCC(=O)O)C(=O)N[C@@H](C)C(=O)N[C@@H](C)C(=O)N[C@@H](CC(C)C)C(=O)N[C@@H](CCCNC(=N)N)C(=O)NCC(=O)N[C@@H](CO)C(=O)NCC(=O)N[C@@H](CSCC(=O)O[C@H]1CC[C@@]2(C)C(=CC[C@H]3[C@@H]4CC[C@H]([C@H](C)CCCC(C)C)[C@@]4(C)CC[C@@H]32)C1)C(N)=O) [Peptide 32] | 13 | 0.04
8 | Suc-ACYAACIEALIRAAQEQQEKNEAALR-NH2 (cysteine pairing not given here) [Peptide 67] | 0.8 | 8
9 | Ac-ACYAACIEALIRAAQEQQEKNEALLR-NH2 [Peptide 73] | 3 | 21
10 | Penlanoyl-ECYLACIEALIRAAQEQQEKNEAALR-NH2 (Pentanoyl-ECYLACIEALIRAAQEQQEKNEAALR-NH2; cysteine pairing not given here) [Peptide 39] | 5 | 7
11 | AC-ECYAACIEALIRAAQEQQEKNEAALR-NH2 [Peptide 74] | 0.9 | 53
12 | Ac-ACYLACIEALIRAAQEQQEKNEAALL-NH2 [Peptide 54] | 2 | 3
13 | AC-ACYAACIEALIRAAQEQQEKNEAALR-NH2 [Peptide 89] | 3 | 18
14 | Ac-ACYAACIEALIRKAQEQQEKNEAALR-NH2 [Peptide 71] | 1 | 8
15 | Suc-ANYLALIEALIRAAQEQQEKNEAAL-NH2 (SMILES CC[C@H](C)[C@H](NC(=O)[C@H](CC(C)C)NC(=O)[C@H](C)NC(=O)[C@H](CCC(=O)O)NC(=O)[C@@H](NC(=O)[C@H](CC(C)C)NC(=O)[C@H](C)NC(=O)[C@H](CC(C)C)NC(=O)[C@H](Cc1ccc(O)cc1)NC(=O)[C@H](CC(N)=O)NC(=O)[C@H](C)NC(=O)CCC(=O)O)[C@@H](C)CC)C(=O)N[C@@H](CCCNC(=N)N)C(=O)N[C@@H](C)C(=O)N[C@@H](C)C(=O)N[C@@H](CCC(N)=O)C(=O)N[C@@H](CCC(=O)O)C(=O)N[C@@H](CCC(N)=O)C(=O)N[C@@H](CCC(N)=O)C(=O)N[C@@H](CCC(=O)O)C(=O)N[C@@H](CCCCN)C(=O)N[C@@H](CC(N)=O)C(=O)N[C@@H](CCC(=O)O)C(=O)N[C@@H](C)C(=O)N[C@@H](C)C(=O)N[C@@H](CC(C)C)C(N)=O) [Peptide 1] | 0.4 | 4
16 | Ac-ACYVACIEALIRAAQEQQEKNEAALR-NH2 [Peptide 62] | 2 | 10
17 | Ac-ACYFACIEALIRAAQEQQEKNEAALR-NH2 [Peptide 61] | 4 | 4
18 | AC-ACYAACIEALIRAAREQQEKNEAALR-NH2 [Peptide 84] | 4 | 13
19 | Ac-ACYIACIEALIRAAQEQQEKNEAALR-NH2 [Peptide 58] | 6 | 4
20 | Suc-ANYAALIEALIRAAQEQQEKNEAALR-NH2 (SMILES CC[C@H](C)[C@H](NC(=O)[C@H](CC(C)C)NC(=O)[C@H](C)NC(=O)[C@H](CCC(=O)O)NC(=O)[C@@H](NC(=O)[C@H](CC(C)C)NC(=O)[C@H](C)NC(=O)[C@H](C)NC(=O)[C@H](Cc1ccc(O)cc1)NC(=O)[C@H](CC(N)=O)NC(=O)[C@H](C)NC(=O)CCC(=O)O)[C@@H](C)CC)C(=O)N[C@@H](CCCNC(=N)N)C(=O)N[C@@H](C)C(=O)N[C@@H](C)C(=O)N[C@@H](CCC(N)=O)C(=O)N[C@@H](CCC(=O)O)C(=O)N[C@@H](CCC(N)=O)C(=O)N[C@@H](CCC(N)=O)C(=O)N[C@@H](CCC(=O)O)C(=O)N[C@@H](CCCCN)C(=O)N[C@@H](CC(N)=O)C(=O)N[C@@H](CCC(=O)O)C(=O)N[C@@H](C)C(=O)N[C@@H](C)C(=O)N[C@@H](CC(C)C)C(=O)N[C@@H](CCCNC(=N)N)C(N)=O) [Peptide 3] | 0.4 | 22
21 | Suc-ENYLRLIEELIRKAQEQQEKNEAALRGSGK(palmitoyl)-NH2 (Suc-ENYLRLIEELIRKAQEQQEKNEAALRGSGK(Palmitoyl)-NH2; SMILES CCCCCCCCCCCCCCCC(=O)NCCCC[C@H](NC(=O)CNC(=O)[C@H](CO)NC(=O)CNC(=O)[C@H](CCCNC(=N)N)NC(=O)[C@H](CC(C)C)NC(=O)[C@H](C)NC(=O)[C@H](C)NC(=O)[C@H](CCC(=O)O)NC(=O)[C@H](CC(N)=O)NC(=O)[C@H](CCCCN)NC(=O)[C@H](CCC(=O)O)NC(=O)[C@H](CCC(N)=O)NC(=O)[C@H](CCC(N)=O)NC(=O)[C@H](CCC(=O)O)NC(=O)[C@H](CCC(N)=O)NC(=O)[C@H](C)NC(=O)[C@H](CCCCN)NC(=O)[C@H](CCCNC(=N)N)NC(=O)[C@@H](NC(=O)[C@H](CC(C)C)NC(=O)[C@H](CCC(=O)O)NC(=O)[C@H](CCC(=O)O)NC(=O)[C@@H](NC(=O)[C@H](CC(C)C)NC(=O)[C@H](CCCNC(=N)N)NC(=O)[C@H](CC(C)C)NC(=O)[C@H](Cc1ccc(O)cc1)NC(=O)[C@H](CC(N)=O)NC(=O)[C@H](CCC(=O)O)NC(=O)CCC(=O)O)[C@@H](C)CC)[C@@H](C)CC)C(N)=O) [Peptide 55] | 3 | 0.05
22 | Ac-ACYLACIEALIRAAQEQQEKNEAALR-NH2 [Peptide 56] | 2 | 4
23 | Ac-ACYAACIEELIRKAQEQQEKNEAALR-NH2 [Peptide 72] | 0.6 | 15
24 | Suc-ECYLRCIEELIRKAQEQQEKNEAALRGSGC(cholesteryl-oxycarbonylmethyl)-NH2 (Suc-ECYLRCIEELIRKAQEQQEKNEAALRGSGC(cholesteryl‑oxycarbonylmethyl)-NH2; cysteine pairing not given here) [Peptide 82] | 6 | 0.05
25 | Ac-ACYAACIEALIRAAQEQQEKNEAALR-NH2 [Peptide 64] | 0.8 | 56
26 | ENYTRQIYRILEESQEQQDRNERDLL [Slfuvlrtlde-PBD, reference compound] | 0.8 | 36400
27 | AC-ACYWACIEALIRAAQEQQEKNEAALR-NH2 [Peptide 63] | 3 | 7
28 | Ac-ACYAACIEALIRAAQEQQEKNEAALR-NH2 [Peptide 65] | 1 | 17
29 | Ac-ACYAAcIEALIRAAQEQQEKNEAALR-NH2 [Peptide 83] | 3 | 54
